We go through five compounds from article PMC2666621 (Current drug metabolism, 2009).

Assay [1] has as its target T1, CHLαGcT (cholesterol α-glucosyltransferase; HP0421) (Helicobacter pylori, UniProt O25175). The assay is described as follows: product inhibition, Lineweaver-Burk. In kind it is biochemical. The note with it: varied UDP-Glc; competitive with UDP-Glc.
The target of assay [2] is T1, CHLαGcT (cholesterol α-glucosyltransferase; HP0421). The assay is described as follows: glucosyltransferase inhibition assay. The note with it: UDP-Glc 3.6 μM, cholesterol 400 μM (so in the source); cited from earlier work. In kind it is biochemical.

By IC50 is commonly meant the concentration needed to halve the response being measured.

Regarding `O=c1ccn([C@@H]2O[C@H](COP(=O)(O)OP(=O)(O)O)[C@@H](O)[C@H]2O)c(=O)[nH]1` [UDP], the “product inhibition, Lineweaver-Burk” value in assay [1] was “inhibition profile of UDP in the presence of UDP-Glc intersected at the Y-axis, indicating competitive inhibition”.
With `CCCCCCCCO[C@H]1O[C@H](CO[C@@H]2O[C@H](CO)[C@@H](O[C@@H]3O[C@H](CO)[C@H](O[C@H]4O[C@H](CO)[C@@H](O)[C@H](O)[C@H]4NC(C)=O)[C@H](O)[C@H]3O)[C@H](O)[C@H]2NC(C)=O)[C@H](O)[C@H](O[C@@H]2O[C@H](CO)[C@H](O)[C@H](O)[C@H]2O)[C@H]1NC(C)=O` [GlcNAcα1→4Galβ1→4GlcNAcβ1→6(Galβ1→3)GalNAcα1→octyl], in assay [2], the IC50 was 470 µM.
For the compound `CC(=O)N[C@H]1[C@@H](Oc2ccc([N+](=O)[O-])cc2)O[C@H](CO)[C@H](O)[C@@H]1O[C@@H]1O[C@H](CO)[C@H](O)[C@H](O)[C@H]1O` [Galβ1→3GalNAcα1→p-nitrophenol], the IC50 in assay [2] was 7490 µM.
`CC(=O)N[C@H]1[C@H](OC[C@H]2O[C@H](Oc3ccc([N+](=O)[O-])cc3)[C@H](NC(C)=O)[C@@H](O[C@@H]3O[C@H](CO)[C@H](O)[C@H](O)[C@H]3O)[C@H]2O)O[C@H](CO)[C@@H](O)[C@@H]1O` [GlcNAcβ1→6(Galβ1→3)GalNAcα1→p-nitrophenol]: in assay [2], the IC50 is 2210 µM.
Consider `CCCCCCCCO[C@H]1O[C@H](CO)[C@H](O)[C@H](O[C@@H]2O[C@H](CO)[C@H](O)[C@H](O[C@]3(C(=O)O)C[C@H](O)[C@@H](NC(C)=O)[C@H]([C@H](O)[C@H](O)CO)O3)[C@H]2O)[C@H]1NC(C)=O` [NeuAcα2→3Galβ1→3GalNAcα1→octyl], for which the IC50 in assay [2] was 1090 µM.
